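In this assay, cells in 96-well plates receive the compound at five concentrations for 48 hours. Endpoints are linearly interpolated between the surrounding concentrations. Abbreviation: GI50, concentration required for 50% inhibition of growth.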 The source made the active and inactive calls. Rule as the data show it: active = GI50 up to about 1.1 µM and inactive = higher.
Tests used:
Experiment in all cases: growth of human tumour cells (NCI), 48 h
HCC 2998 = test system: HCC 2998
M14 = test system: M14
DU-145 = test system: DU-145
SK-MEL-28 = test system: SK-MEL-28
CAKI-1 = test system: CAKI-1
CCRF-CEM = test system: CCRF-CEM
SK-MEL-5 = test system: SK-MEL-5
NCI-H460 = test system: NCI-H460
U-251 = test system: U-251
OVCAR-4 = test system: OVCAR-4
SK-OV-3 = test system: SK-OV-3
SN12C = test system: SN12C
MDA-MB-231 = test system: MDA-MB-231
Malme-3M = test system: Malme-3M
HCT-15 = test system: HCT-15
A549 = test system: A549
RXF 393 = test system: RXF 393
LOX IMVI = test system: LOX IMVI
SNB-75 = test system: SNB-75
ACHN = test system: ACHN

SMILES	GI50 (HCC 2998)	GI50 (M14)	GI50 (DU-145)	GI50 (SK-MEL-28)	GI50 (CAKI-1)	GI50 (CCRF-CEM)	GI50 (SK-MEL-5)	GI50 (NCI-H460)	GI50 (U-251)	GI50 (OVCAR-4)	GI50 (SK-OV-3)	GI50 (SN12C)	GI50 (MDA-MB-231)	GI50 (Malme-3M)	GI50 (HCT-15)	GI50 (A549)	GI50 (RXF 393)	GI50 (LOX IMVI)	GI50 (SNB-75)	GI50 (ACHN)
NC(=O)C(=CNC(=S)Nc1ccc(Cl)c(Cl)c1)C(N)=O	26.8 µM (inactive)	> 100 µM (inactive)	> 100 µM (inactive)	> 100 µM (inactive)	59.4 µM (inactive)	> 80.4 µM (inactive)	42.3 µM (inactive)	> 100 µM (inactive)	> 56 µM (inactive)	46 µM (inactive)	> 78.7 µM (inactive)	> 100 µM (inactive)	> 100 µM (inactive)	> 100 µM (inactive)	45.1 µM	> 100 µM (inactive)	> 49.9 µM (inactive)	> 92.3 µM (inactive)	> 59.6 µM (inactive)	> 94 µM (inactive)
Cc1c2oc3c(C)cnc(C(=O)NC4C(=O)NC(C(C)C)C(=O)N5CCCC5C(=O)N(C)CC(=O)N(C)C(C(C)C)C(=O)OC4C)c3nc-2c(C(=O)NC2C(=O)NC(C(C)C)C(=O)N3CCCC3C(=O)N(C)CC(=O)N(C)C(C(C)C)C(=O)OC2C)c(N)c1=O (stereo not given)	2.67 µM (inactive)	3.4 µM (inactive)	4.72 µM (inactive)	1.67 µM (inactive)	10.9 µM (inactive)	0.121 µM (active)	1.04 µM (active)	1.03 µM (active)	0.931 µM (active)	10.8 µM (inactive)	5.6 µM (inactive)	1.36 µM (inactive)	9.77 µM (inactive)	1.28 µM (inactive)	21 µM	3.37 µM (inactive)	1.12 µM (active)	0.348 µM (active)	6.41 µM (inactive)	5.48 µM (inactive)
Cc1cccc2c1C(=O)[C@](C)([C@]1(C)Nc3cccc(C)c3C1=O)N2	31.9 µM (inactive)	33.9 µM (inactive)	54.1 µM (inactive)	37.6 µM (inactive)	27.4 µM (inactive)	17.6 µM (inactive)	29.4 µM (inactive)	31 µM (inactive)	60.3 µM (inactive)	47.6 µM (inactive)	21.7 µM (inactive)	29.6 µM (inactive)	37.1 µM (inactive)	36.3 µM (inactive)	18.2 µM	26.4 µM (inactive)	54.1 µM (inactive)	29.3 µM (inactive)	11 µM (inactive)	43.9 µM (inactive)
C#CCOC(=O)C(N)CC(N)=O (stereo not given)	> 100 µM (inactive)	> 100 µM (inactive)	> 100 µM (inactive)	> 100 µM (inactive)	> 100 µM (inactive)	> 100 µM (inactive)	> 100 µM (inactive)	> 100 µM (inactive)	> 100 µM (inactive)	> 100 µM (inactive)	> 100 µM (inactive)	> 100 µM (inactive)	> 100 µM (inactive)	> 100 µM (inactive)	> 100 µM	> 100 µM (inactive)	> 100 µM (inactive)	> 100 µM (inactive)	> 100 µM (inactive)	> 100 µM (inactive)
C[C@H](CCC(=O)O)[C@H]1CC[C@H]2[C@@H]3[C@@H](O)C[C@@H]4C[C@H](O)CC[C@]4(C)[C@H]3CC[C@]12C	> 100 µM (inactive)	95.3 µM (inactive)	> 100 µM (inactive)	98.6 µM (inactive)	> 100 µM (inactive)	60.8 µM (inactive)	62.1 µM (inactive)	58.2 µM (inactive)	58.6 µM (inactive)	> 100 µM (inactive)	> 100 µM (inactive)	> 100 µM (inactive)	> 100 µM (inactive)	> 100 µM (inactive)	67.3 µM	61.4 µM (inactive)	> 100 µM (inactive)	> 100 µM (inactive)	> 100 µM (inactive)	> 100 µM (inactive)

— ChEMBL document CHEMBL1201862, “PubChem BioAssay data set” (2004)
